In patent US11427556B2, “Urea derivatives as inhibitors of ASK1” (Hepagene Therapeutics (HK) Limited, priority 2017, dated 2022):

Each compound was assayed against T1, Recombinant human ASK1 kinase (Homo sapiens, UniProt Q99683) (assay: ASK1 kinase HTRF assay (HTRF KinEASE-STK, phosphorylation of biotinylated peptide substrate)). Details: not given.
T1 construct: purchased Invitrogen Inc
T1 sequence (Q99683 1-1374): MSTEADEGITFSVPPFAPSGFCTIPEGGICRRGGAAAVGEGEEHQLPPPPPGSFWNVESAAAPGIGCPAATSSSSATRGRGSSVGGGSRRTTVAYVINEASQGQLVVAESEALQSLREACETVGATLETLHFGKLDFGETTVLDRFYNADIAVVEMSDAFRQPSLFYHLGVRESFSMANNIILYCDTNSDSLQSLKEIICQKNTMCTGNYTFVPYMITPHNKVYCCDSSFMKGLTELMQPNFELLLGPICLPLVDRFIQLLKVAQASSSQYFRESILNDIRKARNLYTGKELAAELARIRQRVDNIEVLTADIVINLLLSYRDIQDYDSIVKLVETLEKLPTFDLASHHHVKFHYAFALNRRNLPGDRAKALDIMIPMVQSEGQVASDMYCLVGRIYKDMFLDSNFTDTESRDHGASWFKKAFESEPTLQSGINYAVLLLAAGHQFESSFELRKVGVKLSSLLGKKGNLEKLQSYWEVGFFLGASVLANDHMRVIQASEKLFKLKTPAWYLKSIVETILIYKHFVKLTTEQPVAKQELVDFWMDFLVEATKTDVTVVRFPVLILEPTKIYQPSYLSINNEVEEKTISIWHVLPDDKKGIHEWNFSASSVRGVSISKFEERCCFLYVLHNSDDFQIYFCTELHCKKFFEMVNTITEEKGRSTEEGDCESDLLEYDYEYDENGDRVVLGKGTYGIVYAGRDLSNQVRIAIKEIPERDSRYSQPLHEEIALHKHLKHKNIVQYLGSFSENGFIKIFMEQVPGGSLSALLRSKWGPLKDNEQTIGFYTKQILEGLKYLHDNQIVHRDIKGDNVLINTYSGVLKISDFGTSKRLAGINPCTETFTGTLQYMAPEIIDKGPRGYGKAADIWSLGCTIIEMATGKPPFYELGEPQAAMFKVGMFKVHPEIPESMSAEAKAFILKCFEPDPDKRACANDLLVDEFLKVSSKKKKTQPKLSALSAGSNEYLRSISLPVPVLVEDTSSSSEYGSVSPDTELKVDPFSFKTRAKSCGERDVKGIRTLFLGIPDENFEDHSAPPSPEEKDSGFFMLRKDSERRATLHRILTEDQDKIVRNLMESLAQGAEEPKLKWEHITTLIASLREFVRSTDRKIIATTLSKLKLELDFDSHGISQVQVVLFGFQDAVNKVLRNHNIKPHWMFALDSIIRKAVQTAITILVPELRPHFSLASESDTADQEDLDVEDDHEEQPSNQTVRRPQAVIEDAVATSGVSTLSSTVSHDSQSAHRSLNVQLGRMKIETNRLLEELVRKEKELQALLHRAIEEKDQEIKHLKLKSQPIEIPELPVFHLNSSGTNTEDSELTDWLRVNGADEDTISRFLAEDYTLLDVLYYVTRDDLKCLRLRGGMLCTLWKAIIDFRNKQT
Format: biochemical
Procedure: Reagents: Recombinant human ASK1 kinase was from Invitrogen Inc. HTRF KinEASETM-STK S3 kit was obtained from Cisbio (Bedford, Mass.). All other reagents were of the highest grade commercially available.
Assay: The assay measures the phosphorylation level of a biotinylatd peptide substrate by the ASK1 kinase using HTRF detection. ASK1 kinase assay is based on HTRF KinEASETM-STK manual from Cisbio. Test compound, 1 uM STK-substrate-biotin, 3 nM of ASK1 kinase are incubated with 1*Kinase buffer with 5 mM MgCl2 and 1 mM DTT.

SMILES	EC50 [µM]
CC(C)n1cnnc1-c1cccc(NC(=O)Nc2cc(C(=O)N3CCCCC3)ccn2)n1 [Compound I-109]	< 0.05
C[C@H](CO)n1cnnc1-c1cccc(NC(=O)Nc2cc(C(=O)N3CCCCC3)ccn2)n1 [Compound I-110]	< 0.05
CC(C)n1cnnc1-c1cccc(NC(=O)Nc2cc(C(=O)N3CCOCC3)ccn2)n1 [Compound I-132]	< 0.05
C[C@H](CO)n1cnnc1-c1cccc(NC(=O)Nc2cc(C(=O)N3CCOCC3)ccn2)n1 [Compound I-133]	< 0.05
CC(C)n1cnnc1-c1cccc(NC(=O)Nc2cc(C(=O)N3CCC(=O)CC3)ccn2)n1 [Compound I-134]	< 0.05
C[C@H](CO)n1cnnc1-c1cccc(NC(=O)Nc2cc(C(=O)N3CCC(=O)CC3)ccn2)n1 [Compound I-135]	< 0.05
CC(C)n1cnnc1-c1cccc(NC(=O)Nc2cc(C(=O)N3CCNCC3)ccn2)n1 [Compound I-139]	< 0.05
C[C@H](CO)n1cnnc1-c1cccc(NC(=O)Nc2cc(C(=O)N3CCNCC3)ccn2)n1 [Compound I-140]	< 0.05
CC(C)n1cnnc1-c1cccc(NC(=O)Nc2cc(C(=O)N3CCCC3)ccn2)n1 [Compound I-145]	< 0.05
C[C@H](CO)n1cnnc1-c1cccc(NC(=O)Nc2cc(C(=O)N3CCCC3)ccn2)n1 [Compound I-146]	< 0.05

Same assay, conditions: 3 nM ASK1 kinase, 1 uM STK-substrate-biotin, HTRF detection; read-out: EC50

SMILES	EC50 [µM]
C[C@H](CO)n1cnnc1-c1cccc(NC(=O)Nc2cc(C3CCOCC3)ccn2)n1 [Compound I-092]	< 0.05
CC(C)n1cnnc1-c1cccc(NC(=O)Nc2ccc(N3CCOCC3)cn2)n1 [Compound I-093]	< 0.05
CC(C)n1cnnc1-c1cccc(NC(=O)Nc2cc(N3CCOCC3)ccn2)n1 [Compound I-094]	< 0.05
CC(C)n1cnnc1-c1cccc(NC(=O)Nc2cc(N3CCNCC3)ccn2)n1 [Compound I-095, 1-(6-(4-Isopropyl-4H-1,2,4-triazol-3-yl)pyridin-2-yl)-3-(4-(piperazin-1-yl)pyridin-2-yl)urea]	< 0.05
C[C@H](CO)n1cnnc1-c1cccc(NC(=O)Nc2cc(N3CCNCC3)ccn2)n1 [Compound I-096]	< 0.05
CC(C)n1cnnc1-c1cccc(NC(=O)Nc2ccc(N3CCNCC3)cn2)n1 [Compound I-097]	< 0.05
CC(C)N1CCN(c2ccnc(NC(=O)Nc3cccc(-c4nncn4C(C)C)n3)c2)CC1 [Compound I-098]	< 0.05
CCN1CCN(c2ccnc(NC(=O)Nc3cccc(-c4nncn4C(C)C)n3)c2)CC1 [Compound I-099]	< 0.05
CC(C)n1cnnc1-c1cccc(NC(=O)Nc2cc(N3CCN(C4CC4)CC3)ccn2)n1 [Compound I-100]	< 0.05
CC(C)n1cnnc1-c1cccc(NC(=O)Nc2cc(N3CCN(CCO)CC3)ccn2)n1 [Compound I-101]	< 0.05
CC(C)n1cnnc1-c1cccc(NC(=O)Nc2cc(N3CCN(S(C)(=O)=O)CC3)ccn2)n1 [Compound I-102]	< 0.05
C[C@H](CO)n1cnnc1-c1cccc(NC(=O)Nc2cc(N3CCN(S(C)(=O)=O)CC3)ccn2)n1 [Compound I-103]	< 0.05
CC(=O)N1CCN(c2ccnc(NC(=O)Nc3cccc(-c4nncn4C(C)C)n3)c2)CC1 [Compound I-104]	< 0.05
CC(C)n1cnnc1-c1cccc(NC(=O)Nc2cc(N3CCCCC3)ccn2)n1 [Compound I-105]	< 0.05
CC(C)n1cnnc1-c1cccc(NC(=O)Nc2cc(N3CCC(N4CCOCC4)CC3)ccn2)n1 [Compound I-106]	< 0.05
C[C@H](CO)n1cnnc1-c1cccc(NC(=O)Nc2cc(N3CCC(N4CCOCC4)CC3)ccn2)n1 [Compound I-107]	< 0.05
CC(C)n1cnnc1-c1cccc(NC(=O)Nc2cc(C(N)=O)ccn2)n1 [Compound I-108]	< 0.05
CC1(n2cnnc2-c2cccc(NC(=O)Nc3cc(C(=O)N4CCCCC4)ccn3)n2)CC1 [Compound I-115]	< 0.05
CC(C)n1cnnc1-c1cccc(NC(=O)Nc2cc(C(=O)N3CCC(C)(C)CC3)ccn2)n1 [Compound I-117]	< 0.05
CC(C)n1cnnc1-c1cccc(NC(=O)Nc2cc(C(=O)N3CCCC[C@@H]3C)ccn2)n1 [Compound I-118]	< 0.05
C[C@H](CO)n1cnnc1-c1cccc(NC(=O)Nc2cc(C(=O)N3CCCC[C@@H]3C)ccn2)n1 [Compound I-119]	< 0.05
CC(C)n1cnnc1-c1cccc(NC(=O)Nc2cc(C(=O)N3CCCC[C@H]3C)ccn2)n1 [Compound I-120]	< 0.05
C[C@@H]1CCCCN1C(=O)c1ccnc(NC(=O)Nc2cccc(-c3nncn3[C@H](C)CO)n2)c1 [Compound I-121]	< 0.05

SMILES	EC50 [µM]
C[C@H](CO)n1cnnc1-c1cccc(NC(=O)Nc2cc(C(=O)N3CCc4ccccc4C3)ccn2)n1 [Compound I-122]	< 0.05
CC(C)n1cnnc1-c1cccc(NC(=O)Nc2cc(C(=O)N3CCCc4ccccc43)ccn2)n1 [Compound I-123]	< 0.05
C[C@H](CO)n1cnnc1-c1cccc(NC(=O)Nc2cc(C(=O)N3CCCc4ccccc43)ccn2)n1 [Compound I-124]	< 0.05
CC(C)n1cnnc1-c1cccc(NC(=O)Nc2cc(C(=O)N3CCCC4CCCCC43)ccn2)n1 (stereo not shown) [Compound I-125]	< 0.05
C[C@H](CO)n1cnnc1-c1cccc(NC(=O)Nc2cc(C(=O)N3CCC[C@@H]4CCCC[C@H]43)ccn2)n1 [Compound I-126]	< 0.05
CC(C)n1cnnc1-c1cccc(NC(=O)Nc2cc(C(=O)N3CC[C@@H]4CCCC[C@H]4C3)ccn2)n1 [Compound I-127]	< 0.05
CC(C)n1cnnc1-c1cccc(NC(=O)Nc2cc(C(=O)N3CCC4(CCCCC4)CC3)ccn2)n1 [Compound I-128]	< 0.05
C[C@H](CO)n1cnnc1-c1cccc(NC(=O)Nc2cc(C(=O)N3CCC4(CCCCC4)CC3)ccn2)n1 [Compound I-129]	< 0.05
CC(C)n1cnnc1-c1cccc(NC(=O)Nc2cc(C(=O)N3CCC(N4CCOCC4)CC3)ccn2)n1 [Compound I-130]	< 0.05
C[C@H](CO)n1cnnc1-c1cccc(NC(=O)Nc2cc(C(=O)N3CCC(N4CCOCC4)CC3)ccn2)n1 [Compound I-131]	< 0.05
CC(C)n1cnnc1-c1cccc(NC(=O)Nc2cc(C(=O)N3CCC(O)CC3)ccn2)n1 [Compound I-136]	< 0.05
C[C@H](CO)n1cnnc1-c1cccc(NC(=O)Nc2cc(C(=O)N3CCC(O)CC3)ccn2)n1 [Compound I-137]	< 0.05
CC(C)n1cnnc1-c1cccc(NC(=O)Nc2cc(C(=O)N3CCC(C)(O)CC3)ccn2)n1 [Compound I-138]	< 0.05
CC(C)n1cnnc1-c1cccc(NC(=O)Nc2cc(C(=O)N3CCN(C)CC3)ccn2)n1 [Compound I-141]	< 0.05
C[C@H](CO)n1cnnc1-c1cccc(NC(=O)Nc2cc(C(=O)N3CCN(C)CC3)ccn2)n1 [Compound I-142]	< 0.05
CC(C)n1cnnc1-c1cccc(NC(=O)Nc2cc(C(=O)N3CCC(F)(F)CC3)ccn2)n1 [Compound I-143]	< 0.05
C[C@H](CO)n1cnnc1-c1cccc(NC(=O)Nc2cc(C(=O)N3CCC(F)(F)CC3)ccn2)n1 [Compound I-144]	< 0.05
CC(C)n1cnnc1-c1cccc(NC(=O)Nc2cc(C(=O)N3CCCCCC3)ccn2)n1 [Compound I-147]	< 0.05
C[C@H](CO)n1cnnc1-c1cccc(NC(=O)Nc2cc(C(=O)N3CCCCCC3)ccn2)n1 [Compound I-148]	< 0.05
CC(C)n1cnnc1-c1cccc(NC(=O)Nc2cc(C(=O)N3C4CCCC3CC4)ccn2)n1 [Compound I-149]	< 0.05
C[C@H](CO)n1cnnc1-c1cccc(NC(=O)Nc2cc(C(=O)N3C4CCCC3CC4)ccn2)n1 [Compound I-150]	< 0.05
CC(C)n1cnnc1-c1cccc(NC(=O)Nc2cc(C(=O)NC3CCCCC3)ccn2)n1 [Compound I-151]	< 0.05
